From US10221139B2, “Inhibitors of histone demethylases” (Gilead Sciences, Inc., priority 2012, dated 2019) come the findings set out here.

For the experiment, the system named is MCF7 cells. Briefly: MCF7 cell proliferation assay (ATPlite). The class given is cell-based. As to conditions: Homo sapiens, 120 hours. Here is the method:
MCF7 cells were seeded at 1250 cells/well in 50 μl medium/well in black 96 well plates. Cells were incubated for 24 hours before addition of compound. Compounds were diluted in complete medium (50 μl/well) and added to the plates in duplicates. The total volume of medium in the wells was 100 μl, and the final concentration of DMSO 0.5%. Complete medium used was DMEM with GlutaMAX containing 10% FBS and pen/strep.
120 hours after addition of compounds, the plates were harvested and analyzed by ATPlite 1 Step (Perkin Elmer, cat no 6016739) according to the manufactures recommendation. Briefly, 100 μl ATP lite solution was added to each well, plates were vortexed at 700 rpm 2 minutes, followed by 20 minutes incubation in the dark, and then analyzed for luminescence on EnSpire 2300 Mulitilabel reader (Perkin Elmer). EC50 values were calculated using GraphPad Prism 6.

Bounds are passed on as bounds.

`CCN(CCN(C)C)C(=O)CNCc1cc(C(=O)O)ccn1` [drawing 268, 2-{[({[2-(dimethylamino)ethyl](ethyl)carbamoyl}methyl)amino]methyl}pyridine-4-carboxylic acid] had an EC50 of 1000 to 50000 nM.

As for `CCN(CC)CCCCNCc1cc(C(=O)Oc2ccc(OC)cc2)ccn1` [drawing 269, 4-methoxyphenyl 2-({[4-(diethylamino)butyl]amino}methyl)pyridine-4-carboxylate], the EC50 is under 1000 nM.

`CCOC(=O)c1ccccc1OC(=O)c1ccnc(CNCCCCN(CC)CC)c1` [drawing 270, 2-(ethoxycarbonyl)phenyl 2-({[4-(diethylamino)butyl]amino}methyl)pyridine-4-carboxylate]: the EC50 is under 1000 nM.

On to `CCN(CC)CCCCNCc1cc(C(=O)OCCCN(C)C)ccn1` [drawing 271, 3-(dimethylamino)propyl 2-({[4-(diethylamino)butyl]amino}methyl)pyridine-4-carboxylate], for which the EC50 was in the range of 1000 to 50000 nM.

As for `CCOC(=O)Nc1ccc(COC(=O)c2ccnc(CNCCCCN(CC)CC)c2)cc1` [drawing 272, {4-[(ethoxycarbonyl)amino]phenyl}methyl 2-({[4-(diethylamino)butyl]amino}methyl)pyridine-4-carboxylate], the EC50 was 1000 to 50000 nM.

As for `CCN(CC)CCCCNCc1cc(C(=O)Oc2c(OC)cccc2OC)ccn1` [drawing 273, 2,6-dimethoxyphenyl 2-({[4-(diethylamino)butyl]amino}methyl)pyridine-4-carboxylate], the 50% effective concentration (EC50) is under 1000 nM.

`CCN(CC)CCCCNCc1cc(C(=O)Oc2c(C)cccc2C)ccn1` [drawing 274, 2,6-dimethylphenyl 2-({[4-(diethylamino)butyl]amino}methyl)pyridine-4-carboxylate] yielded an EC50 of under 1000 nM.

In the case of `CCN(CCN(C)C)C(=O)CNCc1cc(C(=O)Oc2ccc(OC)cc2)ccn1` [drawing 275, 4-methoxyphenyl 2-{[({[2-(dimethylamino)ethyl](ethyl)carbamoyl}methyl)amino]methyl}pyridine-4-carboxylate], the EC50 is 1000 to 50000 nM.

`CCOC(=O)c1ccccc1OC(=O)c1ccnc(CNCC(=O)N(CC)CCN(C)C)c1` [drawing 276, 2-(ethoxycarbonyl)phenyl 2-{[({[2-(dimethylamino)ethyl](ethyl)carbamoyl}methyl)amino]methyl}pyridine-4-carboxylate] returned an EC50 of 1000 to 50000 nM.

As to `CCOC(=O)N(C)c1ccc(COC(=O)c2ccnc(CNCCCCN(CC)CC)c2)cc1` [drawing 277, {4-[(ethoxycarbonyl)(methyl)amino]phenyl}methyl 2-({[4-(diethylamino)butyl]amino}methyl)pyridine-4-carboxylate], the EC50 is under 1000 nM.

The compound `CCN(CCN(C)C)C(=O)CNCc1cc(C(=O)Oc2ccc(C(C)(C)C)cc2)ccn1` [drawing 278, 4-tert-butylphenyl 2-{[({[2-(dimethylamino)ethyl](ethyl)carbamoyl}methyl)amino]methyl}pyridine-4-carboxylate] showed an EC50 of under 1000 nM.

Take `CCN(CCN(C)C)C(=O)CNCc1cc(C(=O)OC(C)CC(C)=O)ccn1` (stereo not drawn) [drawing 279, 4-oxopentan-2-yl 2-{[({[2-(dimethylamino)ethyl](ethyl)carbamoyl}methyl)amino]methyl}pyridine-4-carboxylate]: the EC50 is under 1000 nM.

`CCN(CCN(C)C)C(=O)CNCc1cc(C(=O)OC(C)CCNC(=O)C(F)(F)F)ccn1` (stereo not drawn) [drawing 280, 4-(trifluoroacetamido)butan-2-yl 2-{[({[2-(dimethylamino)ethyl](ethyl)carbamoyl}methyl)amino]methyl}pyridine-4-carboxylate] displayed a 50% effective concentration (EC50) of under 1000 nM.

The compound `CCN(CCN(C)C)C(=O)CNCc1cc(C(=O)OC(C)CCN(C)C(=O)C(F)(F)F)ccn1` (stereo not drawn) [drawing 281, 4-(2,2,2-trifluoro-N-methylacetamido)butn-2-yl 2-{[({[2-(dimethylamino)ethyl](ethyl)carbamoyl}methyl)amino]methyl}pyridine-4-carboxylate] gave an EC50 of under 1000 nM.

`CCOC(=O)c1ccnc(CNCC(=O)N(CC)CCN(C)C)c1` [drawing 282, ethyl 2-{[({[2-(dimethylamino)ethyl](ethyl)carbamoyl}methyl)amino]methyl}pyridine-4-carboxylate] came in with an EC50 of under 1000 nM.

`C=CC(CCNC(=O)C(F)(F)F)OC(=O)c1ccnc(CNCC(=O)N(CC)CCN(C)C)c1` (stereo not drawn) [drawing 283, 5-(trifluoroacetamido)pent-1-en-3-yl 2-{[({[2-(dimethylamino)ethyl](ethyl)carbamoyl}methyl)amino]methyl}pyridine-4-carboxylate] displayed an EC50 of under 1000 nM.

With `C=CC(CCN(C)C(=O)C(F)(F)F)OC(=O)c1ccnc(CNCC(=O)N(CC)CCN(C)C)c1` (stereo not drawn) [drawing 284, 5-(2,2,2-trifluoro-N-methylacetamido)pent-1-en-3-yl 2-{[({[2-(dimethylamino)ethyl](ethyl)carbamoyl}methyl)amino]methyl}pyridine-4-carboxylate], the EC50 is under 1000 nM.

In turn, `CCCCCCCCCCCCCCCC(=O)OCC(COC(=O)CCCCCCCCCCCCCCC)OC(=O)c1ccnc(CNCC(=O)N(CC)CCN(C)C)c1` [drawing 285, 2-(2-{[({[2-(dimethylamino)ethyl](ethyl)carbamoyl}methyl)amino]methyl}pyridine-4-carbonyloxy)-3-(hexadecanoyloxy)propyl hexadecanoate] registered an EC50 of under 1000 nM.

The compound `CCCCCCCCCCCCCCCC(=O)OCC(COC(=O)c1ccnc(CNCC(=O)N(CC)CCN(C)C)c1)OC(=O)CCCCCCCCCCCCCCC` (stereo not drawn) [drawing 286, 1-(2-{[({[2-(dimethylamino)ethyl](ethyl)carbamoyl}methyl)amino]methyl}pyridine-4-carbonyloxy)-3-(hexadecanoyloxy)propan-2-yl hexadecanoate] registered an EC50 of under 1000 nM.

Turning to `CCN(CCN(C)C)C(=O)CNCc1cc(C(=O)OC)ccn1` [drawing 287, methyl 2-{[({[2-(dimethylamino)ethyl](ethyl)carbamoyl}methyl)amino]methyl}pyridine-4-carboxylate], the EC50 is under 1000 nM.

`CCN(CCN(C)C)C(=O)CNCc1cc(C(=O)N(C)S(C)(=O)=O)ccn1` [drawing 288, 2-{[({[2-(dimethylamino)ethyl](ethyl)carbamoyl}methyl)amino]methyl}-N-methanesulfonyl-N-methylpyridine-4-carboxamide] gave an EC50 of under 1000 nM.

`CCN(CCN(C)C)C(=O)CNCc1cc(C(=O)N2CCOC2=O)ccn1` [drawing 289, N-[2-(dimethylamino)ethyl]-N-ethyl-2-({[4-(2-oxo-1,3-oxazolidine-3-carbonyl)pyridin-2-yl]methyl}amino)acetamide] returned an EC50 of 1000 to 50000 nM.

`CCN(CCN(C)C)C(=O)CNCc1cc(C(=O)OC(CNC(=O)C(F)(F)F)CC(=O)OC(C)C)ccn1` (stereo not drawn) [drawing 290, propan-2-yl 3-(2-{[({[2-(dimethylamino)ethyl](ethyl)carbamoyl}methyl)amino]methyl}pyridine-4-carbonyloxy)-4-(trifluoroacetamido)butanoate] yielded an EC50 of 1000 to 50000 nM.

As to `CCN(CCN(C)C)C(=O)CNCc1cc(C(=O)OCC(F)(F)F)ccn1` [drawing 292, 2,2,2-trifluoroethyl 2-{[({[2-(dimethylamino)ethyl](ethyl)carbamoyl}methyl)amino]methyl}pyridine-4-carboxylate], the EC50 is 1000 to 50000 nM.

As for `CCN(CCN(C)C)C(=O)CNCc1cc(C(=O)Nc2ncco2)ccn1` [drawing 293, 2-{[({[2-(dimethylamino)ethyl](ethyl)carbamoyl}methyl)amino]methyl}-N-(1,3-oxazol-2-yl)pyridine-4-carboxamide], the EC50 was in the range of 1000 to 50000 nM.

Consider `CCN(CCN(C)C)C(=O)CNCc1cc(C(=O)OCCF)ccn1` [drawing 294, 2-fluoroethyl 2-{[({[2-(dimethylamino)ethyl](ethyl)carbamoyl}methyl)amino]methyl}pyridine-4-carboxylate], for which the EC50 was under 1000 nM.

Take `CCN(CCN(C)C)C(=O)CNCc1cc(C(=O)OCC(F)F)ccn1` [drawing 295, 2,2-difluoroethyl 2-{[({[2-(dimethylamino)ethyl](ethyl)carbamoyl}methyl)amino]methyl}pyridine-4-carboxylate]: the EC50 was under 1000 nM.
